Experimental data: US7507730B2, “Substituted pyrazolo[1,5-a]pyrimidines as potassium channel activators” (Bristol-Myers Squibb Company, priority 2005, dated 2009)

Biological target: Kv1.5 (Homo sapiens, UniProt P22460)
Assay: Kv1.5 inhibition assay (IKur inhibitor assay per cited references)
Assay type: cell-based
Conditions: for IC50: read-out: Kv1.5 IC50; for inhibition at 0.3 µM / Kv1.5% inhibition: at 0.3 μM
Excerpt: Assays to determine the degree of activity of a compound as an IKur inhibitor are well known in the art and are described in references such as J. Gen. Physiol. Apr.; 101 (4):513-43, and Br. J. Pharmacol. 1995 May; 115(2):267-74.

Chain of Kv1.5 (P22460 whole entry): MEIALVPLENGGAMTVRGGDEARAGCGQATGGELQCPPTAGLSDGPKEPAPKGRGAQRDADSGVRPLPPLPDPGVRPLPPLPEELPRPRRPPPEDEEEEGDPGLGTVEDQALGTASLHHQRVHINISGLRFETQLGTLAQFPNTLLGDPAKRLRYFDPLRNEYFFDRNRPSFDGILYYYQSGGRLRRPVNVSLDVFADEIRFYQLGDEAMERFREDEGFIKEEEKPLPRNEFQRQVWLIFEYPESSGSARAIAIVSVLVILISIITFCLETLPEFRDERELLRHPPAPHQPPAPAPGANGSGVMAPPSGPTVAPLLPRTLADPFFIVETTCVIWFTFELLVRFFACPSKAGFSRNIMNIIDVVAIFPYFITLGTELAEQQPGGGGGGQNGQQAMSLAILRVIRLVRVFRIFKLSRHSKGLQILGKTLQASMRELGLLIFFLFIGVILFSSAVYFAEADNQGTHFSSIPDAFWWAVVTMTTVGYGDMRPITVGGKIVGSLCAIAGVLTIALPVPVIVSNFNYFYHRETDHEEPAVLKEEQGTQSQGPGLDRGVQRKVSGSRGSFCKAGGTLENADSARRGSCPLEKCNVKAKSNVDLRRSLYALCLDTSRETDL

SMILES	inhibition at 0.3 µM [%]	Kv1.5% inhibition [%]	other results
CC1=C(S(=O)(=O)c2ccc(F)cc2)C(c2ccc(Cl)cc2)n2nc(C(F)(F)F)cc2N1 (single isomer, unassigned) [Example 27 Isomer 2, 7-(4-Chlorophenyl)-6-(4-fluorophenylsulfonyl)-5-methyl-2-(trifluoromethyl)-4,7-dihydropyrazolo[1,5-a]pyrimidine]	–	–	IC50: 92 nM
CC1=C(S(=O)(=O)N(C)c2ccccc2)C(c2ccc(Cl)c(Cl)c2)n2nc(C(F)(F)F)cc2N1 (single isomer, unassigned) [Example 63 Isomer 1, 7-(3,4-Dichlorophenyl)-N,5-dimethyl-N-phenyl-2-(trifluoromethyl)-4,7-dihydropyrazolo[1,5-a]pyrimidine-6-sulfonamide]	30	–	–
CC1=C(S(=O)(=O)NC(C)(C)C)C(c2ccc(Cl)c(Cl)c2)n2nc(C(F)(F)F)cc2N1 (single isomer, unassigned) [Example 58 Isomer 2, N-tert-Butyl-7-(3,4-dichlorophenyl)-5-methyl-2-(trifluoromethyl)-4,7-dihydropyrazolo[1,5-a]pyrimidine-6-sulfonamide]	–	37.7	–
CC1=C(S(=O)(=O)C2CCCCC2)C(c2ccc(Cl)c(Cl)c2)n2nc(C)cc2N1 (single isomer, unassigned) [Example 10 Isomer 1, 6-(Cyclohexylsulfonyl)-7-(3,4-dichlorophenyl)-2,5-dimethyl-4,7-dihydropyrazolo[1,5-a]pyrimidine]	–	–	IC50: 77 nM
CCCCS(=O)(=O)C1=C(C)Nc2cc(C)nn2C1c1ccc(Cl)c(Cl)c1 (single isomer, unassigned) [Example 18 Isomer 2, 6-(Butylsulfonyl)-7-(3,4-dichlorophenyl)-2,5-dimethyl-4,7-dihydropyrazolo[1,5-a]pyrimidine]	–	28.8	–
CC1=C(S(=O)(=O)c2ccccc2)C(c2ccc(Cl)s2)n2nc(C(F)(F)F)cc2N1 (racemic) [Example 20, 7-(5-Chlorothiophen-2-yl)-5-methyl-6-(phenylsulfonyl)-2-(trifluoromethyl)-4,7-dihydropyrazolo[1,5-a]pyrimidine]	7.8	–	–
COc1ccc(S(=O)(=O)C2=C(C)Nc3cc(C(F)(F)F)nn3C2c2ccc(Cl)cc2)cc1 (single isomer, unassigned) [Example 25 Isomer 2, 7-(4-Chlorophenyl)-6-(4-methoxyphenylsulfonyl)-5-methyl-2-(trifluoromethyl)-4,7-dihydropyrazolo[1,5-a]pyrimidine]	–	82.9	–
CC1=C(S(=O)(=O)c2ccc(Cl)cc2)C(C2CCCCC2)n2nc(C(F)(F)F)cc2N1 (single isomer, unassigned) [Example 44 Isomer 1, 6-(4-Chlorophenylsulfonyl)-7-cyclohexyl-5-methyl-2-(trifluoromethyl)-4,7-dihydropyrazolo[1,5-a]pyrimidine]	–	–	IC50: 202 nM
COc1ccc(S(=O)(=O)C2=C(C)Nc3cc(C)nn3C2c2cccc(Cl)c2)cc1 (single isomer, unassigned) [Example 17 Isomer 2, 7-(3-Chlorophenyl)-6-(4-methoxyphenylsulfonyl)-2,5-dimethyl-4,7-dihydropyrazolo[1,5-a]pyrimidine]	18.1	–	–
COc1ccc(S(=O)(=O)C2=C(CO)Nc3cc(C(F)(F)F)nn3C2c2ccc(Cl)cc2)cc1 (single isomer, unassigned) [Example 49 Isomer 2, (7-(4-Chlorophenyl)-6-(4-methoxyphenylsulfonyl)-2-(trifluoromethyl)-4,7-dihydropyrazolo[1,5-a]pyrimidin-5-yl)methanol]	–	71.2	–
COc1ccc(S(=O)(=O)C2=C(C)Nc3cc(C)nn3C2c2cccc(Cl)c2)cc1 (single isomer, unassigned) [Example 17 Isomer 1, 7-(3-Chlorophenyl)-6-(4-methoxyphenylsulfonyl)-2,5-dimethyl-4,7-dihydropyrazolo[1,5-a]pyrimidine]	–	–	IC50: 256 nM
CC1=C(S(=O)(=O)NCc2ccccc2)C(c2ccc(Cl)cc2)n2nc(C)cc2N1 (single isomer, unassigned) [Example 55 Isomer 2, N-Benzyl-7-(4-chlorophenyl)-2,5-dimethyl-4,7-dihydropyrazolo[1,5-a]pyrimidine-6-sulfonamide]	–	17.2	–
CC1=C(C(=O)N(C)S(=O)(=O)c2ccccc2)C(c2ccc(Cl)c(Cl)c2)n2nc(C)cc2N1 (single isomer, unassigned) [Example 79 Isomer 1, 7-(3,4-Dichlorophenyl)-N,2,5-trimethyl-N-(phenylsulfonyl)-4,7-dihydropyrazolo[1,5-a]pyrimidine-6-carboxamide]	–	25	–
CCCCS(=O)(=O)C1=C(C)Nc2cc(C(F)(F)F)nn2C1c1ccc(Cl)cc1 (single isomer, unassigned) [Example 30 Isomer 1, 6-(Butylsulfonyl)-7-(4-chlorophenyl)-5-methyl-2-(trifluoromethyl)-4,7-dihydropyrazolo[1,5-a]pyrimidine]	–	–	IC50: 210 nM
CC1=C(C(=O)N(C)S(=O)(=O)C(C)C)C(c2ccc(Cl)c(Cl)c2)n2nc(C(F)(F)F)cc2N1 (single isomer, unassigned) [Example 96 Isomer 1, 7-(3,4-Dichlorophenyl)-N-(isopropylsulfonyl)-N,5-dimethyl-2-(trifluoromethyl)-4,7-dihydropyrazolo[1,5-a]pyrimidine-6-carboxamide]	57	–	–
CC1=C(C(=O)N(C)S(=O)(=O)C(C)C)C(c2ccc(Cl)c(Cl)c2)n2nc(C(F)(F)F)cc2N1 (racemic) [Example 87, 7-(3,4-Dichlorophenyl)-N-(isopropylsulfonyl)-N,5-dimethyl-2-(trifluoromethyl)-4,7-dihydropyrazolo[1,5-a]pyrimidine-6-carboxamide]	–	–	IC50: 259 nM
CC1=C(S(=O)(=O)C2CCCCC2)C(c2ccc(Cl)c(Cl)c2)n2nc(C)cc2N1 (single isomer, unassigned) [Example 10 Isomer 2, 6-(Cyclohexylsulfonyl)-7-(3,4-dichlorophenyl)-2,5-dimethyl-4,7-dihydropyrazolo[1,5-a]pyrimidine]	59.3	–	–
CC1=C(S(=O)(=O)c2ccc(F)cc2)C(c2ccc(Cl)c(Cl)c2)n2nc(C)cc2N1 (single isomer, unassigned) [Example 1 Isomer 1, 7-(3,4-Dichlorophenyl)-6-(4-fluorophenylsulfonyl)-2,5-dimethyl-4,7-dihydropyrazolo[1,5-a]pyrimidine]	–	98	–
CC1=C(S(=O)(=O)N2CCOCC2)C(c2ccc(Cl)c(Cl)c2)n2nc(C(F)(F)F)cc2N1 (single isomer, unassigned) [Example 66 Isomer 1, 7-(3,4-Dichlorophenyl)-5-methyl-6-(morpholinosulfonyl)-2-(trifluoromethyl)-4,7-dihydropyrazolo[1,5-a]pyrimidine]	51	–	–
CC1=C(S(=O)(=O)c2ccccc2)C(c2ccc(Cl)cc2)n2nc(C(F)(F)F)cc2N1 (single isomer, unassigned) [Example 26 Isomer 2, 7-(4-Chlorophenyl)-5-methyl-6-(phenylsulfonyl)-2-(trifluoromethyl)-4,7-dihydropyrazolo[1,5-a]pyrimidine]	–	85.9	–
CC1=C(S(=O)(=O)N2CCCC2)C(c2ccc(Cl)c(Cl)c2)n2nc(C)c(Cl)c2N1 (single isomer, unassigned) [Example 69 Isomer 1, 3-Chloro-7-(3,4-dichlorophenyl)-2,5-dimethyl-6-(pyrrolidin-1-ylsulfonyl)-4,7-dihydropyrazolo[1,5-a]pyrimidine]	40	–	–
